According to PMC7669867, “Synthesis and initial screening of lactate dehydrogenase inhibitor activity of 1,3-benzodioxole derivatives” (Scientific Reports, 2020):
“And” between values parts separate entries of the source, which are not always exact repeats. Equal entries are not always repeated. Where two headings read alike, the source gives them in different places.

How the values were obtained:
LDHA = conditions: cited from earlier work; for LDHA inhibitory activity: at concentrations up to 1 mM
[1] = system: human pancreatic cancer PANC-1 cells; experiment: Cell viability MTT assay, PANC-1; type: cell-based; conditions: read-out: PANC-1 (GI50)
Experimental: (§1) The human pancreatic cancer cell lines, PANC-1 and MiaPaCa-2, human lung cancer A549 cells, human breast cancer MCF-7, and human glioma U87 cells were obtained from the Korean cell line bank (Seoul, Korea). The cells were cultured in Dulbecco’s Modified Eagle Medium (DMEM; ThermoFisher Scientific, Waltham, MA) supplemented with 10% fetal bovine serum (FBS; Sigma-Aldrich) and 1% penicillin/streptomycin (ThermoFisher Scientific). The cells were cultured at 37 °C in an atmosphere containing 5% CO2.
(§2) The potential cytotoxicity of compounds at different concentrations was evaluated using the MTT assay. Briefly, cancer cell lines were pre-incubated in 96-well plates with compounds for 48 h. Subsequently, MTT working solution (2 mg/mL in phosphate buffer solution) was added to each well and the plate was incubated for 4 h at 37 °C in an atmosphere containing 5% CO2. Then, the conditioned media were aspirated, and the formed formazan crystals in living cells were quantified using the microplate reader (Spectramax M2) at 540 nm. The concentrations that produce 50% cell growth inhibition (GI50) were calculated by curves constructed by the plot of cell survival by an assistant of PRISM software (GraphPad, San Diego, CA).

human glioma U87 cells = experiment: Cell viability MTT assay, U87; type: cell-based; conditions: U-87 MG, 48 h, read-out: U87 (GI50)
Experimental: as §1, §2

[2] = system: human pancreatic cancer MiaPaCa-2 cells; experiment: Cell viability MTT assay, MiaPaCa-2; type: cell-based; conditions: read-out: MiaPaCa-2 (GI50)
Experimental: as §1, §2

[3] = system: human lung cancer A549 cells; experiment: Cell viability MTT assay, A549; type: cell-based; conditions: read-out: A549 (GI50)
Experimental: as §1, §2

[4] = target: T1, purified recombinant human LDHA protein (Homo sapiens, UniProt P00338); experiment: In vitro LDHA inhibitor activity (NADH fluorescence decrease); type: biochemical; conditions: for LDHB/LDHA: ratio of LDHB IC50 to LDHA IC50 (selectivity)
T1 construct: purchased Abcam
Experimental: (§3) The in vitro evaluation of the LDHA inhibitor activities of the synthesized compounds was determined by the NADH intensity decrease through oxidation in a solution of HEPES-K^+, NADH, and pyruvate at a pH = 7.2. The NADH oxidation fluorescence intensity was measured using a spectrofluorometer at 340 nm excitation and 460 nm emission wavelengths, representing the NADH-specific fluorescence spectrum. Furthermore, the in vitro evaluation of the LDHB inhibitor activity was determined as a reverse reaction, which converts lactate to pyruvate by determining the amount of NAD^+ converted to NADH using the above-mentioned spectrophotometric experimental setting (Table 2). Based on this analysis, the half-maximal inhibitory concentration (IC50) of the synthesized compounds was obtained.
In vitro evaluation on LDHA inhibitor activity. LDHA activity assay was performed in accordance with previous studies[16],[18]. Briefly, the various concentrations of compounds were incubated with reaction buffer containing 20 mM HEPES-K^+, 20 μM NADH, 2 mM pyruvate, and 100 ng of purified recombinant human LDHA protein (Abcam, Cambridge, UK). The fluorescence of NADH, which has an excitation wavelength of 340 nm and an emission wavelength of 460 nm, was detected using a microplate spectrofluorometer (Spectramax M2; Molecular Devices, Sunnyvale, CA).

[5] = system: human breast cancer MCF-7; experiment: Cell viability MTT assay, MCF-7; type: cell-based; conditions: read-out: MCF-7 (GI50)
Experimental: as §1, §2

[6] = target: T2, purified recombinant human LDHB protein (Homo sapiens, UniProt P07195); experiment: In vitro LDHB activity assay (NAD+ converted to NADH); type: biochemical
T2 construct: purchased Abcam
T2 sequence (P07195 whole entry): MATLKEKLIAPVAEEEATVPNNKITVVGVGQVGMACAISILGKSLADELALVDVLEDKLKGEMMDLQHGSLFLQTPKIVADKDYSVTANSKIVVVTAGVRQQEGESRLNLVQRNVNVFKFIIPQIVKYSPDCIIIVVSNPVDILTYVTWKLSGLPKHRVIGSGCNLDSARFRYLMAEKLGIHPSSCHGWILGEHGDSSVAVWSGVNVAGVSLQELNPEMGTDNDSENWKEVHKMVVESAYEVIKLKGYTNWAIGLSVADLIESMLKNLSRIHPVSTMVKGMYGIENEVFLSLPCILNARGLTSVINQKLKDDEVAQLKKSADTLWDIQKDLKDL
Experimental: as §3
In vitro analysis was determined the amount of NAD^+ converted to NADH[33]. The assay mixture composed of 100 mM Tris–HCl buffer (pH 8.0), 200 mM sodium L-lactate, 2.5 mM NAD^+, and 100 ng of purified recombinant human LDHB protein (Abcam). The fluorescence intensity of NADH was measured using a spectrofluorometer (Spectramax M2) at 340 nm as excitation wavelength and 460 nm as emission wavelength which is the specific fluorescence of NADH.

several cancer cells = experiment: Cell viability MTT assay, several cancer cells; type: cell-based; conditions: Homo sapiens, cell line not given, read-out: concentration of half-maximal growth inhibition (GI50)
Experimental: To assess the anticancer potency of these compounds in several cancer cells, we determined the cell toxicities of these compounds using an MTT assay. […] On the other hand, compound 10 has higher cytotoxicity compared to other compounds in various cancer cell lines. […] There is a small difference between standard compounds and compound 10 in growth inhibition of PANC-1 cells.
as §2

in vitro [7] = type: in vitro ADME, human; conditions: human, plasma
Experimental: (§4) Human and rat plasma (Sigma-Aldrich) are incubated at 37 °C with test compounds. During the incubation, aliquots are withdrawn at 0, 30, 120 min time points and acetonitrile solution (containing chlorpropamide) is added. After vortexing, the aliquots are centrifuged and the supernatant is withdrawn for analysis by LC–MS/MS.

in vitro [8] = type: in vitro ADME, rat; conditions: rat, plasma
Experimental: as §4

CYP1A2 = target: T3, CYP1A2 (Homo sapiens, UniProt P05177); experiment: CYP isozymes activity assay, CYP1A2; type: in vitro ADME; conditions: pooled human liver microsomes, phenacetin; ketoconazole at 0.1 µM
T3 construct: Pooled Human liver microsomes (Sigma-Aldrich; 0.25 mg/mL); tissue Sigma-Aldrich; host or cells: pooled human liver microsomes
T3 sequence (P05177 1-516): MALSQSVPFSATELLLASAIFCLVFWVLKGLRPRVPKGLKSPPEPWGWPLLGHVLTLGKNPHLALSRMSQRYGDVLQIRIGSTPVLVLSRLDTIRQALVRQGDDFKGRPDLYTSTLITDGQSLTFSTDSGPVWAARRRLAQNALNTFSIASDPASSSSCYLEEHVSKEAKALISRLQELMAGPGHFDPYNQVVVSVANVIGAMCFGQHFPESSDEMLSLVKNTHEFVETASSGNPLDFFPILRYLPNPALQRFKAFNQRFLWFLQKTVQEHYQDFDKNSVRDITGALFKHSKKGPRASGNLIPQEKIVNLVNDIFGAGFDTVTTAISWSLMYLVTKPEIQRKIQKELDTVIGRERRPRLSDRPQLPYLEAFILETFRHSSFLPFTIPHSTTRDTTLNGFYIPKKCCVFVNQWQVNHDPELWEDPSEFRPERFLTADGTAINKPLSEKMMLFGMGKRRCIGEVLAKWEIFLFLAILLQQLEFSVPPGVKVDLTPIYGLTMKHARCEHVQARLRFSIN
Experimental: (§5) Pooled Human liver microsomes (Sigma-Aldrich; 0.25 mg/mL), 0.1 M phosphate buffer solution (pH 7.4), the five most commonly used substrate cocktails, such as 50 µM phenacetin (CYP1A2), 10 µM diclofenac […], 100 µM S-mephenytoin (CYP2C19) 5 µM dextromethorphan (CYP2D6), and 2.5 µM midazolam (CYP3A4), and compound 10 are pre-incubated at 37 °C for 5 min, then incubated with NADPH generation system solution for 15 min. To finish the enzymatic reaction, an acetonitrile solution (containing terfenadine) is added. The reaction tubes are centrifuged and the supernatant is withdrawn for analysis by LC–MS/MS.

CYP2C9 = target: T4, CYP2C9 (Homo sapiens, UniProt P11712); experiment: CYP isozymes activity assay, CYP2C9; type: in vitro ADME; conditions: pooled human liver microsomes, diclofenac; ketoconazole at 0.1 µM
T4 construct: Pooled Human liver microsomes (Sigma-Aldrich; 0.25 mg/mL); tissue Sigma-Aldrich; host or cells: pooled human liver microsomes
T4 sequence (P11712 whole entry): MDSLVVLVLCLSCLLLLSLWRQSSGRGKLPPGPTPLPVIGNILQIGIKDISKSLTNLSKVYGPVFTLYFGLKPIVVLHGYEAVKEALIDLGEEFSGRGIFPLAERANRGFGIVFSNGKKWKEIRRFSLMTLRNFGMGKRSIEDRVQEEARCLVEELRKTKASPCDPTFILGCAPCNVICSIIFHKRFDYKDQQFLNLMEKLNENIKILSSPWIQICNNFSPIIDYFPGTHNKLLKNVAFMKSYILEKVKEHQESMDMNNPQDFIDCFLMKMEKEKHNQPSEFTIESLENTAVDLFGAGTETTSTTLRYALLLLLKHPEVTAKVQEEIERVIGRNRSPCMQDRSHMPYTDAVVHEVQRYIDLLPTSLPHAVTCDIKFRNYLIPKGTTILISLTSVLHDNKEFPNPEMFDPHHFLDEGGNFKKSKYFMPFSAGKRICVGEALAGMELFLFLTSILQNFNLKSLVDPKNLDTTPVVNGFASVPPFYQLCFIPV
Experimental: as §5

CYP2C19 = target: T5, CYP2C19 (Homo sapiens, UniProt P33261); experiment: CYP isozymes activity assay, CYP2C19; type: in vitro ADME; conditions: pooled human liver microsomes, S-mephenytoin; ketoconazole at 0.1 µM
T5 construct: Pooled Human liver microsomes (Sigma-Aldrich; 0.25 mg/mL); tissue Sigma-Aldrich; host or cells: pooled human liver microsomes
T5 sequence (P33261 whole entry): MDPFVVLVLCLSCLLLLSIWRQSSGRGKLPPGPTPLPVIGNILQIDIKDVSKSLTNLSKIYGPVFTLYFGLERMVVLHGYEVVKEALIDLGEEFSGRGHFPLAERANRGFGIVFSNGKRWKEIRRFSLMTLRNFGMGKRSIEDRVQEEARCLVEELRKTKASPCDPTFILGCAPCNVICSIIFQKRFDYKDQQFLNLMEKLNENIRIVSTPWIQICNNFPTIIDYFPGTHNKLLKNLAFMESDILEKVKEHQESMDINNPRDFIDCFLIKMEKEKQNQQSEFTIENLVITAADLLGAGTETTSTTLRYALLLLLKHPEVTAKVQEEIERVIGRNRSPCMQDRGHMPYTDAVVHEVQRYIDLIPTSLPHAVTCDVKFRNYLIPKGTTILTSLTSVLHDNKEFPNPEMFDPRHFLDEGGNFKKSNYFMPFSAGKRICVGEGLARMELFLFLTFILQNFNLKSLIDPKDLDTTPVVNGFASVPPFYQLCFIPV
Experimental: as §5

[9] = Homo sapiens, PANC-1, MTT, 48 h
[10] = synthesized compounds, read-out: LDHA IC50
[11] = synthesized compounds, read-out: LDHB IC50

| Compound | GI50 [1, 9] [µM] | GI50 (human glioma U87 cells; MTT) [µM] | GI50 ([2]; MIA PaCa-2, MTT, 48 h) [µM] | GI50 ([3]; A549, MTT, 48 h) [µM] | IC50 [4, 10] [µM] | GI50 ([5]; MCF7, MTT, 48 h) [µM] | IC50 [6, 11] [µM] | further results |
| --- | --- | --- | --- | --- | --- | --- | --- | --- |
| c1ccc2c(c1)OCO2 [1,3-benzodioxole] | – | – | – | – | – | – | – | LDHA inhibitory activity (LDHA): did not exhibit an LDHA inhibitory activity |
| O=C(OCc1ccc2c(c1)OCO2)c1ccc(C(F)(F)F)cc1 [Compound 2] | > 1000 | > 1000 | > 1000 | > 1000 | 13.6 | > 1000 | 395 | GI50 (several cancer cells): > 1000 µM; LDHB/LDHA [4]: 29.00 |
| O=C(OCc1ccc2c(c1)OCO2)c1ccc([Se]c2ccccc2)cc1 [Compound 9] | – | – | – | – | – | – | – | GI50 ([1]; Homo sapiens, PANC-1, 48 h): 21.1 µM; GI50 (human glioma U87 cells): > 1000 µM; GI50 ([2]; MIA PaCa-2, 48 h): 108 µM; GI50 ([3]; A549, 48 h): 925 µM; IC50 [4]: > 1000 µM; GI50 ([5]; MCF7, 48 h): 455 µM; IC50 ([6]; LDHB IC50, synthesized compounds): 1000 µM and 151 µM |
| CCOC(=O)[C@H](CCc1ccccc1)N[C@@H](C)C(=O)N1CCC[C@H]1C(=O)O [Enalapril] | – | – | – | – | – | – | – | remaining at 0.5 h (in vitro [7]): 95%; remaining at 2 h (in vitro [7]): 93.7%; remaining at 0.5 h (in vitro [8]): 37.7%; remaining at 2 h (in vitro [8]): 1.8% |
| COc1ncc(-c2ccc3c(Nc4cc(Oc5cc(F)cc(F)c5)cc(C(=O)O)c4)c(S(=O)(=O)NC4CC4)cnc3c2)c(OC)n1 [GSK2837808A, reference compound] | – | – | – | – | – | – | – | GI50 ([1]; MTT, 48 h): 11.3 µM |
| CC(=O)N1CCN(c2ccc(OCC3COC(Cn4ccnc4)(c4ccc(Cl)cc4Cl)O3)cc2)CC1 (stereo not drawn) [Ketoconazole, reference compound] | – | – | – | – | – | – | – | CYP1A2 isozyme activity (% of control activity) (CYP1A2): 99.1 % of control activity; CYP2C9 isozyme activity (% of control activity) (CYP2C9): 97.5 % of control activity; CYP2C19 isozyme activity (% of control activity) (CYP2C19): > 100 % of control activity |
| C[C@H](Cc1ccc2c(c1)OCO2)[C@@H](C)Cc1ccc2c(c1)OCO2 [Machilin A] | – | – | – | – | – | – | – | IC50 (LDHA): 84 µM |
| CCN(CC)CCOC(=O)c1ccc(N)cc1 [Procaine] | – | – | – | – | – | – | – | remaining at 5 min (in vitro [7]): 1.5%; remaining at 10 min (in vitro [7]): 0.4%; remaining at 0.5 h (in vitro [8]): 89.8%; remaining at 2 h (in vitro [8]): 52.6% |
| OCc1ccc2c(c1)OCO2 [piperonyl alcohol] | – | – | – | – | – | – | – | LDHA inhibitory activity (LDHA): did not exhibit an LDHA inhibitory activity |
| GNE140 [reference compound] | – | – | – | – | – | – | – | GI50 ([1]; MTT, 48 h): 11.6 µM and 11.9 µM |

Second part, led by results:

| GI50 [1, 9] [µM] | GI50 (human glioma U87 cells; MTT) [µM] | GI50 ([2]; MIA PaCa-2, MTT, 48 h) [µM] | GI50 ([3]; A549, MTT, 48 h) [µM] | IC50 [4, 10] [µM] | GI50 ([5]; MCF7, MTT, 48 h) [µM] | IC50 [6, 11] [µM] | Compound | further results |
| --- | --- | --- | --- | --- | --- | --- | --- | --- |
| > 1000 | > 1000 | > 1000 | > 1000 | > 1000 | > 1000 | 79 | O=C(OCc1ccc2c(c1)OCO2)c1ccc(Br)cc1 [Compound 1] | – |
| 269 | > 1000 | > 1000 | > 1000 | > 1000 | > 1000 | 151 | O=C(OCc1ccc2c(c1)OCO2)c1ccc(I)cc1 [Compound 3] | – |
| 203 | 380 | > 1000 | > 1000 | 182 | 729 | 7.87 | Nc1cccc(C(=O)OCc2ccc3c(c2)OCO3)c1 [Compound 4] | LDHB/LDHA [4]: 0.043 |
| 644 | > 1000 | > 1000 | > 1000 | 478 | > 1000 | > 1000 | O=C(OCc1ccc2c(c1)OCO2)c1ccc(F)cc1 [Compound 5] | – |
| > 1000 | > 1000 | > 1000 | > 1000 | 452 | > 1000 | 130 | O=C(CC(F)(F)F)OCc1ccc2c(c1)OCO2 [Compound 6] | LDHB/LDHA [4]: 0.29 |
| 243 | > 1000 | > 1000 | > 1000 | 843 | > 1000 | > 1000 | O=C(OCc1ccc2c(c1)OCO2)c1ccccc1 [Compound 7] | LDHB/LDHA [4]: > 1.18 |
| 86.5 | > 1000 | > 1000 | > 1000 | > 1000 | > 1000 | 248 | Cc1ccc(C(=O)OCc2ccc3c(c2)OCO3)cc1 [Compound 8] | – |
